Patent US10137122B2, “Kinase inhibitors and methods of use thereof” (priority 2012, dated 2018)
Where two headings read alike, the source gives them in different places.

Tests used:
[1] = target: BRAF (Homo sapiens (Human), UniProt P15056); test: Single point inhibition at 10 μM (Carna), BRAF; format: biochemical
Experimental: (§1) Briefly, a selection of compounds was screened against a panel of kinases at a single concentration of 10 μM. […] This was completed utilizing one of two assays depending on the kinase being examined.
(§2) Test compounds were dissolved in and diluted with dimethylsulfoxide (DMSO) to generate a 100× sample solution. These were then diluted to 4× sample solutions in assay buffer to make the final test compound solutions. Reference compounds for assay control were prepared similarly.
(§3) A solution of IMAP binding reagent (IMAP Screening Express kit; Molecular Devices) (60 μL) was added to each well and incubated for 30 minutes.
(§4) A solution of termination buffer (QuickScout Screening assist MSA; Carna Biosciences) (60 μL) was added to each well. The entire reaction mixture was then applied to a LabChip3000 system (Caliper Life Science) and the product and substrate peptide peaks were separated and quantified.

[2] = target: MLK3 (Homo sapiens (Human), UniProt Q16584); test: Single point inhibition at 10 μM (Carna), MLK3; format: biochemical
Experimental: (§5) Single Point Inhibitory Analysis of Selected Compounds (Carna Biosciences)
as §1, §2, §3, §4

[3] = target: CDK5 (Homo sapiens (Human), UniProt Q00535); test: Single point inhibition at 10 μM (Carna), CDK5; format: biochemical
Experimental: as §5, §1, §2, §3, §4

[4] = test system: TCF/LEF reporter in HEK293-pBARL cells; test: cells; details: Homo sapiens
Experimental: (§6) HEK293-pBARL cells were derived from HEK293 cells and they stably expressed a firefly-luciferase reporter gene driven by a promoter containing 12 copies of TCF/LEF binding sequences. These cells were maintained in DMEM and supplemented with 10% FBS and 1% penicillin-streptomycin (Invitrogen). Reporter gene assays were conducted in anti-biotic free media. […] These cells also contained a renilla-luciferase reporter gene driven by the ubiquitous EF1α promoter as a control. HEK293-pBarl reporter cell lines were seeded into 384-well culture plates (Corning) at 6000 cells/well. 24 hours after plating, cells were treated overnight with relevant compounds and assayed using DualGlo assay kit (Promega). Luminescent intensities were read by EnVision (PerkinElmer, Waltham, Mass.). Firefly luciferase intensity is normalized by renilla luciferase intensity.
(§7) Cells were cultured in 384 well plates to appropriate density (40 μl total plating volume). 24 hours after plating, cells were treated with 100 nl compounds. 24 hours after incubation with compounds (48 hours after plating), assay reagents were prepared by mixing Luciferase Assay solution with Luciferase substrate and Stop & Glo solution to Stop & Glo substrate (extra reagents can be aliquoted and frozen for future use and are stable for at least one freeze/thaw cycle). […] The plate was spun down and 10 minutes were allowed for signal stabilization. Luciferase signal on the Perkin Elmer EnVision using the following parameters: Distance between plate & detector (mm)=0.2; Measurement time(s)=0.1; Glow (CT2) correction factor=0. Once the initial data is secure, a volume of Stop & Glo was added equal to each well equal to the volume of Luciferase reagent added above (If 10 μl Luciferase Reagent was added, 10 μl Stop & Glo was also added). The plate was spun down and 10 minutes were allowed for signal stabilization. The plate was read on the EnVision using the same parameters detailed above.

[5] = target: MELK (Homo sapiens (Human), UniProt Q14680); test: Single point inhibition at 10 μM (Carna), MELK; format: biochemical
Experimental: as §5, §1, §2, §3, §4

[6] = target: HIPK4 (Homo sapiens (Human), UniProt Q8NE63); test: Single point inhibition at 10 μM (Carna), HIPK4; format: biochemical
Experimental: as §5, §1, §2, §3, §4

[7] = target: RSK3 (Homo sapiens (Human), UniProt Q15349); test: Single point inhibition at 10 μM (Carna), RSK3; format: biochemical
Experimental: as §5, §1, §2, §3, §4

[8] = target: MAP2K6 (Homo sapiens (Human), UniProt P52564); test: Single point inhibition at 10 μM (Carna), MAP2K6; format: biochemical
Experimental: as §5, §1, §2, §3, §4

[9] = test system: panel of 311 kinases; test: Single point kinome-wide profile (Carna Biosciences); format: biochemical
Experimental: as §1, §2, §3, §4

[10] = target: GSK3α (Homo sapiens (Human), UniProt P49840); test: biochemical; details: read-out: % Inhibition at 10 μM, GSK3α
Experimental: as §1, §2, §3, §4

[11] = target: PKR (Homo sapiens (Human), UniProt P19525); test: Single point inhibition at 10 μM (Carna), PKR; format: biochemical
Experimental: as §5, §1, §2, §3, §4

[12] = target: CLK1 (Homo sapiens (Human), UniProt P49759); test: Single point inhibition at 10 μM (kinase screen), CLK1; format: biochemical
Experimental: as §1, §2, §3, §4

[13] = test system: β-catenin nuclear translocation in U2-OS cells; test: β-Catenin nuclear localization assay; format: cell-based; details: Homo sapiens, U2OS, read-out: beta-Catenin translocation EC50
Experimental: β-Catenin Nuclear Localization Assay
U2-OS cells stably expressing two complimentary β-galactosidase fragments (one part on β-Catenin and the other constitutively expressed in the cell nucleus) were maintained in DMEM F12 supplemented with 10% FBS. When β-catenin translocates to the nucleus, the complimentary fragments form a complete β-galactosidase, the amount of which is then quantified by β-galactosidase activity (DiscoveRx). Cells were seeded in a 384-well CulturPlate (Perkin Elmer, Boston, Mass.) with 10,000 per well in 20 μL DMEM F12 containing 10% FCS, 100 U/ml penicillin and 100 μg/mL streptomycin. After overnight incubation at 37° C., cells were stimulated with 100 nL test compound/well and then returned to the incubator for 6 h. Cells were disrupted using 12 μL substrate-containing lysis buffer from the PathHunter Detection Kit in the formulation specified by the supplier (DiscoveRx). Plates were incubated in the dark for 1 h at room temperature before measurement of β-galactosidase activity (luminescence) on an EnVision plate reader (PerkinElmer, Waltham, Mass.).

[14] = target: CDK2 (Homo sapiens (Human), UniProt P24941); test: Single point inhibition at 10 μM (kinase screen), CDK2; format: biochemical
Experimental: as §1, §2, §3, §4

[15] = M (mouse)
[16] = target: CDK2/CycE1 (Homo sapiens (Human), UniProt P24941); test: Single point inhibition at 10 μM (Carna), CDK2/CycE1; format: biochemical
Experimental: as §1, §2, §3, §4

[17] = target: DYKR1B (Homo sapiens (Human), UniProt Q9Y463); test: Single point inhibition at 10 μM (Carna), DYKR1B; format: biochemical
Experimental: as §1, §2, §3, §4

[18] = target: PLK1 (Homo sapiens (Human), UniProt P53350); test: Single point inhibition at 10 μM (Carna), PLK1; format: biochemical
Experimental: as §5, §1, §2, §3, §4

[19] = target: CK1g3 (Homo sapiens (Human), UniProt Q9Y6M4); test: Single point inhibition at 10 μM (Carna), CK1g3; format: biochemical
Experimental: as §1, §2, §3, §4

[20] = target: CDK2/CycA2 (Homo sapiens (Human), UniProt P24941); test: Single point inhibition at 10 μM (Carna), CDK2/CycA2; format: biochemical
Experimental: as §1, §2, §3, §4

[21] = target: CK1g1 (Homo sapiens (Human), UniProt Q9HCP0); test: Single point inhibition at 10 μM (Carna), CK1g1; format: biochemical
Experimental: as §1, §2, §3, §4

[22] = target: GSK3β (Homo sapiens (Human), UniProt P49841); test: biochemical; details: read-out: % Inhibition at 10 μM, GSK3β
Experimental: as §1, §2, §3, §4

[23] = test system: phospho-Tau (Ser199) in SH-SY5Y cells; test: Tau phosphorylation assay (phospho-Tau Ser199 ELISA); format: cell-based, human; details: Homo sapiens
Experimental: Tau Phosphorylation and Total Tau Assay
SH-SY5Y cells were maintained in DMEM supplemented with 10% heat-inactivated FBS and 1% penicillin-streptomycin (Invitrogen) unless otherwise stated. ELISA kits for phospho-Tau (Ser199) and total Tau detection were purchased from Invitrogen (KHB0041, and KHB7041 respectively). Briefly, SH-SY5Y cells were seeded at 50,000 cells/200 μL/well in 96 well plates and after overnight incubation, treated with various doses of chemical compounds at 0.2 μL/well. The next day cells were washed with PBS twice before being lysed in 100 μL Lysis buffer/well. 50 μL of cell lysate of each sample was transferred to an ELISA vial coated with the capture antibody, and the mixture was incubated at room temperature for 2 hours, before the supernatant was aspired, and each vial washed four times. 100 μL of detection antibody was then added to each well, incubated for 1 hour, and then washed four times. […] Data were scaled using the positive and neutral controls and fitted for IC50.
A standard protocol using an immunoassay kit to quantify total Tau protein and phospho-Tau (Ser199) protein in SH-SY5Y human neuroblastoma cells was employed. Human Tau (Total) ELISA kit (#KHB0041) and human phosphor-Tau (Ser199) ELISA kit were purchased from Invitrogen (#KHB7041)
50,000 cells were seeded in 200 μl per well in cell culture media (250,000 cells/ml). Cells were incubated overnight @37° C. Cells were induced with appropriate doses of inhibitors and incubated for approximately 24 hrs @37° C. Cell lysates were harvested by washing cells once with cold PBS and adding 100 μl cold lysis buffer and pipette up and down vigorously. Lysate was transferred to 96 well PCR plate and centrifuged at 4,000 rpm for 20 minutes at 4° C.
Well strips were warmed and inserted into the frame. 100μ of standard diluent buffer were loaded into ZERO wells, and 100 ul of each standard concentrations (both total Tau and pTau) were loaded into wells in duplicate. Samples were loaded to each well that would be analyzed for total Tau, 85 μl standard diluent buffer and 15 μl cell lysate were added. To each well that will be analyzed for pTau (Ser199) 50 μl standard diluent buffer+50 μl cell lysate were added. Plates were tapped gently on the side to mix. Certain wells were left empty for chromogen blank. Plates were covered and incubated for 2 hours at room temperature. Wells were aspirated 4 times (400 μl diluted wash buffer, left for 30 seconds, aspirated all wells; alternatively used automated plate washer and programmed in a 30 second hold between each cycle). 100 μl of detection antibody solution were added to each well except chromogen blanks. Anti-total Tau was added to wells being analyzed for total Tau, anti-pTau (Ser199) was added to wells being analyzed for pTau (Ser199), and plates were tapped gently on the side to mix. Plates were covered and incubated for 1 hour at room temperature, then wells were aspirated and washed 4 times as described above. 100 μl of anti-rabbit IgG HRP working solution (prepared ahead) were added to each well except chromogen blanks, and plates were covered and incubated for 30 minutes at room temperature, then wells were aspirated and washed 4 times as described above. 100 μl of stabilized chromogen were added to each well (the liquid turned blue). Plates were incubates for 30 minutes at room temperature in the dark, then 100 μl of stop solution were added to each well, and plates were tapped gently on the side to mix. Absorbance of each well was read at 450 nm (within 2 hours of adding stop solution).

[24] = target: CDK4 (Homo sapiens (Human), UniProt P11802); test: Single point inhibition at 10 μM (Carna), CDK4; format: biochemical
Experimental: as §1, §2, §3, §4

[25] = target: Erk5 (Homo sapiens (Human), UniProt Q13164); test: Single point inhibition at 10 μM (Carna), Erk5; format: biochemical
Experimental: as §5, §1, §2, §3, §4

[26] = test system: TCF/LEF reporter in HEK293-pBARL cells; details: read-out: TCF/LEF EC50
Experimental: as §6, §7

[27] = target: LIMK1 (Homo sapiens (Human), UniProt P53667); test: Single point inhibition at 10 μM (Carna), LIMK1; format: biochemical
Experimental: as §1, §2, §3, §4

[28] = GSH stability; format: in vitro ADME; details: glutathione, 48 hours
Experimental: Stability was determined in the presence of PBS pH […] and 50 μM glutathione with 0.1% DMSO. Each compound was prepared in duplicate on six separate plates and allowed to equilibrate at room temperature with a 250 rpm orbital shake for 48 hours. One plate was removed at each time point (0, 2, 4, 8, 24, and 48 hours). […] Additionally, to the remaining material at each time point, acetonitrile was added to force dissolution of compound (to test for recovery of compound). An aliquot of this was also analyzed by UPLC-MS.

[29] = PBS stability; format: physicochemical; details: 48 hours of incubation, acetonitrile recovery
Experimental: Stability was determined in the presence of PBS pH 7.4 with 0.1% DMSO. Each compound was prepared in duplicate on six separate plates and allowed to equilibrate at room temperature with a 250 rpm orbital shake for 48 hours. One plate was removed at each time point (0, 2, 4, 8, 24, and 48 hours). […] Additionally, to the remaining material at each time point, acetonitrile was added to force dissolution of compound (to test for recovery of compound). An aliquot of this was also analyzed by UPLC-MS.

[30] = target: CDK9 (Homo sapiens (Human), UniProt P50750); test: Single point inhibition at 10 μM (Carna), CDK9; format: biochemical
Experimental: as §5, §1, §2, §3, §4

Sequence of MELK (Q14680 whole entry): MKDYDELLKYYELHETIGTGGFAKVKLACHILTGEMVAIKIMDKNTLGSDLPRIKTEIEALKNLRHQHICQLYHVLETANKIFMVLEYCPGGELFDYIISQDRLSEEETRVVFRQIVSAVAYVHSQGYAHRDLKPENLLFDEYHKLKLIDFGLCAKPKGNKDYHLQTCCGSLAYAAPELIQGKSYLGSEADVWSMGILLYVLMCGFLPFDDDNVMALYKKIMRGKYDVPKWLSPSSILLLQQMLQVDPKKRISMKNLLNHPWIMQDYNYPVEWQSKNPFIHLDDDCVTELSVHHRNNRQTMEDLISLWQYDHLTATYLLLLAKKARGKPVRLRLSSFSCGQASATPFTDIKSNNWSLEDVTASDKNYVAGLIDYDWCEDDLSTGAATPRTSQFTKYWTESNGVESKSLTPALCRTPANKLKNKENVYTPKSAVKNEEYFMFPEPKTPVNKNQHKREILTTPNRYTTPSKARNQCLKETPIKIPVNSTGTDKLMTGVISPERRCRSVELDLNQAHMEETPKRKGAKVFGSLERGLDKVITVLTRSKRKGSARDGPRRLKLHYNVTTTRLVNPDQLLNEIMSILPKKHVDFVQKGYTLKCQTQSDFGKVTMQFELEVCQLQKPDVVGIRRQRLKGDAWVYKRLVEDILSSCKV
Sequence of MLK3 (Q16584 whole entry): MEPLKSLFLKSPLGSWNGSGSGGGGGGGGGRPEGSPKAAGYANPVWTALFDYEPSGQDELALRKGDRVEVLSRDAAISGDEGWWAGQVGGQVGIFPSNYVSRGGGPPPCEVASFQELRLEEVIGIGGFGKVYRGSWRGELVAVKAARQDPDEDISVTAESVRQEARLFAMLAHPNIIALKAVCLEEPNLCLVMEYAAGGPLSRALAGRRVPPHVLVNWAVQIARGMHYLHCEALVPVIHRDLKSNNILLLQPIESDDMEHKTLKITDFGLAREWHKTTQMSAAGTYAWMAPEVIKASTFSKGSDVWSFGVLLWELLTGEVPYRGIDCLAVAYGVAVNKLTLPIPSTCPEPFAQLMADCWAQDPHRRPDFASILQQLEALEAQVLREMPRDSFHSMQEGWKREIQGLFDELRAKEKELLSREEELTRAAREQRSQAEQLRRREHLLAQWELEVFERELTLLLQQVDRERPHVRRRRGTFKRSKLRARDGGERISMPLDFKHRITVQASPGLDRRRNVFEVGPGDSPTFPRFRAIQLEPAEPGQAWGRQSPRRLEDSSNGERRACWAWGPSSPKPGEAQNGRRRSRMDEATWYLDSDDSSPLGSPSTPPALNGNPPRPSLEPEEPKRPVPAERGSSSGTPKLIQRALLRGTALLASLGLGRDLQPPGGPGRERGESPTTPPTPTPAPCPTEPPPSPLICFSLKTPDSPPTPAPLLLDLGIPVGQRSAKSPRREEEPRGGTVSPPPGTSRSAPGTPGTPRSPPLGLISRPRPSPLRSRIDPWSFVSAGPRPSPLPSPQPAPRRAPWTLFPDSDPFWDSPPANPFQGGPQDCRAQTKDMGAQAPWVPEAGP
Sequence of BRAF (P15056 whole entry): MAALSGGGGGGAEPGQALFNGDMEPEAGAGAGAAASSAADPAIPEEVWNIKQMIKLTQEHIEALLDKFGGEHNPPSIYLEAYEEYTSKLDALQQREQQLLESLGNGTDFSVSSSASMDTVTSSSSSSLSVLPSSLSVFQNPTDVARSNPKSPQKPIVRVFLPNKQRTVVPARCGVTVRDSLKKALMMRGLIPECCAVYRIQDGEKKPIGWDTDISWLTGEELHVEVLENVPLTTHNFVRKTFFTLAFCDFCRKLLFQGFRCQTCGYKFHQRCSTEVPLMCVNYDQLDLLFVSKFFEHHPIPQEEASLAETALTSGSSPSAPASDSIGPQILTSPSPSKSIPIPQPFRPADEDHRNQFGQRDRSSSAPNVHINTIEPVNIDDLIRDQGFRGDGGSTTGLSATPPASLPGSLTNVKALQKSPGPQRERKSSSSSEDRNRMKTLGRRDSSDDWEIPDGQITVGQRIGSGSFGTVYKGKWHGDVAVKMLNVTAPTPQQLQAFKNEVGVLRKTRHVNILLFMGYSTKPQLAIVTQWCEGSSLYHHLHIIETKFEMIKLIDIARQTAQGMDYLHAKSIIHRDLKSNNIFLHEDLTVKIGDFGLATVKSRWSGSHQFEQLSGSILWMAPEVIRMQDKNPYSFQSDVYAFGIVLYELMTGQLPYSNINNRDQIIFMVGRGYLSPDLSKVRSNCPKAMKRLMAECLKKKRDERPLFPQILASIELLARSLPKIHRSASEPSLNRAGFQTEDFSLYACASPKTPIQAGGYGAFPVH
Sequence of PKR (P19525 whole entry): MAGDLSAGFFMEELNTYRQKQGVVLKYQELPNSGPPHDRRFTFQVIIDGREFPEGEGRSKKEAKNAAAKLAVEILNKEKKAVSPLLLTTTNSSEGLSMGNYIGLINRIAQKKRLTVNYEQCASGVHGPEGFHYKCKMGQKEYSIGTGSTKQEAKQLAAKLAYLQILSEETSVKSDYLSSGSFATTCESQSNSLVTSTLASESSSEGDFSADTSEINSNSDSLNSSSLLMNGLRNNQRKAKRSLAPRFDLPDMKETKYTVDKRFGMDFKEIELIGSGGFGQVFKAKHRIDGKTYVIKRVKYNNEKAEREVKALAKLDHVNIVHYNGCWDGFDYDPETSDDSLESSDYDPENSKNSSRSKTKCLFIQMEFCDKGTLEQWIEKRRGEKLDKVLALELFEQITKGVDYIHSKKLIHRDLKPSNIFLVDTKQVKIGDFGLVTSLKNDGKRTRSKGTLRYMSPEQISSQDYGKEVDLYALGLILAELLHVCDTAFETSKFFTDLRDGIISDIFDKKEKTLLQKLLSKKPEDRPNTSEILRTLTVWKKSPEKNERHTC
Sequence of CK1g3 (Q9Y6M4 whole entry): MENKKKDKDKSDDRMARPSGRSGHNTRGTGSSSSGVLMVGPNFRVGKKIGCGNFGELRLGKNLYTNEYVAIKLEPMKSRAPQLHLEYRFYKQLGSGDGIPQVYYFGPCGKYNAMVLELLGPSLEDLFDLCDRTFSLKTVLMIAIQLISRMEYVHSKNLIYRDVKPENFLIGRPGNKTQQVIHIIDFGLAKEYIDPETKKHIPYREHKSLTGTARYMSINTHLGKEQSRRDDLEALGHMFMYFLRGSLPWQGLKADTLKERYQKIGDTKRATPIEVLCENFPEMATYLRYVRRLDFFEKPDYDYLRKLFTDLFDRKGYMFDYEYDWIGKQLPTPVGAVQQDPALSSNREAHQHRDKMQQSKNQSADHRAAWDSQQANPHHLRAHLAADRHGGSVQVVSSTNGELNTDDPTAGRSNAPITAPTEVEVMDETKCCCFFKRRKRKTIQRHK
Sequence of Erk5 (Q13164 whole entry): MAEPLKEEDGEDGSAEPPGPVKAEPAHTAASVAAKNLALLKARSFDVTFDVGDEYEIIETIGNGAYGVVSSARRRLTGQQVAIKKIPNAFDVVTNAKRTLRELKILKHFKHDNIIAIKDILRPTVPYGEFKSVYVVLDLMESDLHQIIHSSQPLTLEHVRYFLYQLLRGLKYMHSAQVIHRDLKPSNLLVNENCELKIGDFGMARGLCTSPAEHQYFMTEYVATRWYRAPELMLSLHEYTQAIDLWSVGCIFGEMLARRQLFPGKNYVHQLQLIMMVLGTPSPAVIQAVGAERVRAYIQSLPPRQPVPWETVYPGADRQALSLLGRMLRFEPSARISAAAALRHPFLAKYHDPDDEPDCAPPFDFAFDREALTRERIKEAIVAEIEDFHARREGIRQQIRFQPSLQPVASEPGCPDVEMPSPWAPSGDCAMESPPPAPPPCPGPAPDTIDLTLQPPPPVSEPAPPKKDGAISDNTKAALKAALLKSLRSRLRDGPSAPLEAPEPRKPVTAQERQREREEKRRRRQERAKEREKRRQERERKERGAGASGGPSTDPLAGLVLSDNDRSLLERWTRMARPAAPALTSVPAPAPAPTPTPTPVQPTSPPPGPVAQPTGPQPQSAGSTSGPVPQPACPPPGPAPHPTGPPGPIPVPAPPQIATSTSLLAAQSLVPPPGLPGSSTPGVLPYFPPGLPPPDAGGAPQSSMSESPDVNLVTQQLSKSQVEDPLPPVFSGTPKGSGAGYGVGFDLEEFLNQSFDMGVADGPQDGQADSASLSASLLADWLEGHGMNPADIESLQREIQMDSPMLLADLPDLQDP
Sequence of CDK5 (Q00535 whole entry): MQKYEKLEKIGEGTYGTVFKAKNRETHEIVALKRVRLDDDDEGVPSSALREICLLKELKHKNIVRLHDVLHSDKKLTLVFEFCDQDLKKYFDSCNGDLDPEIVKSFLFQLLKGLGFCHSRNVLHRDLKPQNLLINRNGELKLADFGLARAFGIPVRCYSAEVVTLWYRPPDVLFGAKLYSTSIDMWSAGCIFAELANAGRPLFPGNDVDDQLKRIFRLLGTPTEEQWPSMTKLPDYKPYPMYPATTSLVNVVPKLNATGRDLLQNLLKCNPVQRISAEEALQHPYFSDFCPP
Sequence of CDK5 (Q15078 99-307 partner): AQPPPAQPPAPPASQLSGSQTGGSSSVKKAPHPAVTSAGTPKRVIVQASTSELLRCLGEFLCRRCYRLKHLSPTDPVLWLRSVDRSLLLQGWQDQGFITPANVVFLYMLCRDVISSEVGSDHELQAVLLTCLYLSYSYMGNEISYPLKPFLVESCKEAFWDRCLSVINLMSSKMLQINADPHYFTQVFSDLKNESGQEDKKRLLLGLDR
Sequence of GSK3β (P49841 whole entry): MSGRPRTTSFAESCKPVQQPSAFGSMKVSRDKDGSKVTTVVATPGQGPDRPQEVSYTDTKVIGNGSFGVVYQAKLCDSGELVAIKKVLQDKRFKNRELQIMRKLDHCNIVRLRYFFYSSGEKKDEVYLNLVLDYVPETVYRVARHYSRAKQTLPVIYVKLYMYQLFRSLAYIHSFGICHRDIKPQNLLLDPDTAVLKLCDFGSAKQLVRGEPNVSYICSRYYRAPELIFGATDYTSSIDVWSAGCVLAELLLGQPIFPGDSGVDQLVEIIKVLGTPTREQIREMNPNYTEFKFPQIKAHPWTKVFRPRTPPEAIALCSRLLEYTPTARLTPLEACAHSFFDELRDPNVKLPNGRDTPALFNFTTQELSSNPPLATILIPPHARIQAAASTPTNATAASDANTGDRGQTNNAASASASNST

Compound `Cc1c[nH]c(-c2cnc(NCCNc3ccc(C#N)cn3)nc2-c2ccc(Cl)cc2Cl)n1` [CHIR99021, reference compound] has an inhibition at 10 µM [1] of 53.8%, an inhibition at 10 µM [2] of 52.7% and an inhibition at 10 µM [3] greater than 50%. It also gave an EC50 ([4]; HEK293, read-out: TCF/LEF EC50 (μM)) of 6 µM, an inhibition at 10 µM [5] of 53.5% and an inhibition at 10 µM [6] of 55.5%. The inhibition at 10 µM [7] was 53.6%, the inhibition at 10 µM [8] was 65.3% and the “number of kinases inhibited greater than 50% at 10 μM” value ([9]; panel of 311 kinases) was 21 kinases. The inhibition at 10 µM [10] was 99.9%, the inhibition at 10 µM [11] was 57.1% and the inhibition at 10 µM [12] was greater than 50%. The EC50 [13] was 10 µM, the inhibition at 10 µM [14] was greater than 50% and the “Microsomal Stability” value [15] was “M: 4%”. For the same compound, the inhibition at 10 µM [16] was 67.2%, the inhibition at 10 µM [17] was 70.5% and the inhibition at 10 µM [18] was greater than 50%. It also gave an inhibition at 10 µM [19] of 70.5%, an inhibition at 10 µM [20] of 79.3% and an inhibition at 10 µM [21] of 85.8%. The inhibition at 10 µM [22] was 99.9%, the IC50 ([23]; read-out: Phospho-Tau ELISA in SHSY5Y Cells (IC50)) was 0.44 µM and the inhibition at 10 µM [24] was 65.3%. For the same compound, the inhibition at 10 µM [25] was greater than 50%.
`COc1ccccc1[C@@H]1C2=C(CC(C)(C)CC2=O)Nc2n[nH]c(C(F)(F)F)c21` [Compound 54, (R)-4-(2-methoxyphenyl)-7,7-dimethyl-3-(trifluoromethyl)-6,7,8,9-tetrahydro-2H-pyrazolo[3,4-b]quinolin-5(4H)-one] gave an inhibition at 10 µM [1] of 10.8%, an inhibition at 10 µM [2] of 18.8% and an inhibition at 10 µM [3] of 86.7%. For the same compound, the EC50 ([4]; HEK293, read-out: TCF/LEF EC50 (μM), HEK293 reporter cells) was 5 µM, the inhibition at 10 µM [5] was 4.5% and the inhibition at 10 µM [6] was 3.2%. The inhibition at 10 µM [7] was 0.1%, the inhibition at 10 µM [8] was 0.1% and the EC50 [26] was 4.8 µM. The “% of the kinome (311 kinases) inhibited” value ([9]; 10 μM, 311 kinases) was 2.6%, the inhibition at 10 µM [27] was 6.7% and the inhibition at 10 µM [10] was 99.9%. For the same compound, the inhibition at 10 µM [11] was 0.1%, the “GSH stability, % remaining” value [28] was 99% and the “PBS stability, % still present” value [29] was “more than 95%”. The EC50 [13] was 5 µM, the “Microsomal Stability” value [15] was “M: 0%” and the inhibition at 10 µM [17] was 52.5%. It also gave an inhibition at 10 µM [30] of 20.5%, an inhibition at 10 µM [18] of 21.3% and an inhibition at 10 µM [19] of 3.2%. The inhibition at 10 µM [21] was 0.5%, the inhibition at 10 µM [22] was 99.9% and the EC50 ([23]; read-out: p-Tau Inhibition ELISA EC50 SH-SY5Y) was 1.7 µM. For the same compound, the inhibition at 10 µM [24] was 19% and the inhibition at 10 µM [25] was 0.6%.
